Experimental data taken from US12285397B2, “Use of (s)-3-amino-4-(difluoromethylenyl) cyclopent-1-ene-1-carboxylic acid and related compounds, (1S,3S)-3-amino-4-(difluoromethylidene) cyclopentane-1-carboxylic acid and vigabatrin in the treatment of developmental disorders” (Ovid Therapeutics Inc., priority 2018, dated 2025).

Experiments:
Assay type in all cases: in vivo, mouse
[1] = test system: Fmr1 KO1 mice; assay: Open field repetitive behavior: self grooming, Fmr1 KO1 mice
Text: (§1) Mutant fmr1 knockout (KO) mice recapitulate the Fragile X syndrome (FXS) phenotype and represent a preclinical model for assessment of putative drug treatments. In this study three different mice models of FXS were used: Fmr1 KO1 is the original Fmr1 knockout animal that carries an insertion in exon 5. See, e.g., Bakker C E, et al., The Dutch-Belgian Fragile X Consortium, Fmr1 knockout mice: A model to study fragile X mental retardation. Cell. 1994; 78:23-33 It is a protein null, although Fmr1 mRNA is still present. It is backcrossed to the C57/B16 strain. Subsequently, these mice were bred into different background strains, such as the FVB inbred mouse strain. Fmr1 KO2 is a null allele at Fmr1 generated by deletion of the promoter and first exon of Fmr1. See, Mientjes, E J et al., The generation of a conditional Fmr1 knock out mouse model to study Fmrp function in vivo. Neurobiology of Disease (2006) 21(3): 549-555. It is both protein and mRNA null. Backcrossed to the C57/B16 strain. Genotyping was accomplished using TransnetXY Automated Genotyping (http://www.transnetyx.com/). TRANSNETYX, INC., 8110 Cordova Rd. Suite 119, Cordova, TN 38016, USA.
(§2) The mice were housed in plastic cages (35×30×12 cm), 5 in each and habituated to the animal facilities for at least a week before test. The room temperature (21±2° C.), relative humidity (55±5%), a 12-h light-dark cycle (lights on 7 a.m.-7 p.m.) and air exchange (16 times per h) were automatically controlled. The animals had free access to commercial food pellets and water. Testing was conducted during the light phase. Testing was conducted on Fmr1 knockout mice and their wild-type (WT) littermates. Ten mice per treatment group, 14 weeks of age, were used for behavioral experiments. Experiments were conducted in line with the requirements of the UK Animals (Scientific Procedures) Act, 1986.
(§3) Oral dosing was performed by using 1.5-in. curved, 20-gauge, stainless steel feeding needles with a 2.25-mm ball (Braintree Scientific, Braintree, MA). Each gavage treatment was given in 0.5% methyl cellulose (Methyl Cellulose M0512, Sigma-Aldrich, St Louis, MO) used as vehicle with or without treatment compounds. The same veterinarian, blinded to the treatment groups, performed the procedure, and documented animal reactions to oral gavage. Reactions considered to indicate stress were defined as excessive struggling during gavage or abnormal behavior after gavage (labored breathing, frozen stance, exaggerated jumping, shuddering, and hunched posture).
(§4) For experiments all mice were tested once in the same apparatus. Prior to testing, mice not in the study were placed in the apparatus for some minutes before the experiment. The apparatus was then cleaned with moist and dry tissues before testing each mouse. The aim was to create a low but constant background mouse odor for all experimental subjects. All experiments were conducted with the experimenters blind to genotype and drug treatment during all testing and data analysis. Separate investigators prepared and coded dosing solutions, allocated the mice to the study treatment groups, dosed the animals, and collected the behavioral data. Data were analyzed by one-way analysis of variance (ANOVA) followed by post-hoc comparisons where appropriate using Tukey's Multiple Comparison Test. Data are represented as the mean and standard error of the mean (SEM).
(§5) 2. Open Field Repetitive Behaviors (RB) (stereotypies: anticlockwise circling and self grooming). Fmr1 KO1 mice display the autism-like phenotypes of repetitive behaviors like counter revolutions (CCW), self grooming and stereotypy that typically involves behaviors such as head bobbing. […]

[2] = test system: Fmr1 KO1 mice; assay: Open field repetitive behavior: stereotypy count, Fmr1 KO1 mice
Text: as §1, §2, §3, §4
2. Open Field Repetitive Behaviors (RB) (stereotypies: anticlockwise circling and self grooming). Fmr1 KO1 mice display the autism-like phenotypes of repetitive behaviors like counter revolutions (CCW), self grooming and stereotypy that typically involves behaviors such as head bobbing.
C. […]

[3] = test system: Fmr1 KO1 mice; assay: Open field hyperactivity (locomotor activity), Fmr1 KO1 mice
Text: as §1, §2, §3, §4
1. […]

[4] = test system: Fmr1 KO2 mice; assay: Open field hyperactivity (locomotor activity), Fmr1 KO2 mice
Text: as §1, §2, §3, §4
1. […]

[5] = test system: Fmr1 KO2 mice; assay: Open field repetitive behavior: counter revolutions (CCW), Fmr1 KO2 mice
Text: as §1, §2, §3, §4
2. Open Field Repetitive Behaviors (stereotypies: anticlockwise circling (aka counter revolutions) (CCW) and self grooming). Fmr1 KO2 mice display the autism-like phenotypes of repetitive behaviors like CCW, self grooming and stereotypy that typically involves behaviors such as head bobbing. […]

[6] = test system: Fmr1 KO2 mice; assay: Open field repetitive behavior: stereotypy count, Fmr1 KO2 mice
Text: as §1, §2, §3, §4
2. Open Field Repetitive Behaviors (stereotypies: anticlockwise circling (aka counter revolutions) (CCW) and self grooming). Fmr1 KO2 mice display the autism-like phenotypes of repetitive behaviors like CCW, self grooming and stereotypy that typically involves behaviors such as head bobbing.
C. […]

[7] = test system: Fmr1 KO1 mice; assay: Open field repetitive behavior: counter revolutions (CCW), Fmr1 KO1 mice
Text: as §1, §2, §3, §4, §5

N[C@H]1C=C(C(=O)O)CC1=C(F)F [Compound, (S)-3-Amino-4-(difluoromethylenyl)cyclopent-1-ene-1-carboxylic acid]
Self grooming (time spent grooming), WT-Veh vs. KO1-Compound: Significant? ([1]; 0.01 mg/Kg PO QD seven days): Yes | Self grooming (time spent grooming), WT-Veh vs. KO1-Compound: Significant? ([1]; 0.05 mg/Kg PO QD seven days): No | Self grooming (time spent grooming), WT-Veh vs. KO1-Compound: Summary ([1]; 0.05 mg/Kg PO QD seven days): ns | Self grooming (time spent grooming), WT-Veh vs. KO1-Compound: Significant? ([1]; 0.1 mg/Kg PO QD seven days): No | Self grooming (time spent grooming), WT-Veh vs. KO1-Compound: Summary ([1]; 0.1 mg/Kg PO QD seven days): ns | Time self-grooming compared with WT+veh (FIG. 9) ([1]; 0.05 and 0.1 mg/Kg): did not differ from WT+veh | Stereotypy count, WT-Veh vs. KO1-Compound: Significant? ([2]; 0.01 mg/Kg PO QD seven days): Yes | Stereotypy count, WT-Veh vs. KO1-Compound: Significant? ([2]; 0.05 mg/Kg PO QD seven days): No | Stereotypy count, WT-Veh vs. KO1-Compound: Summary ([2]; 0.05 mg/Kg PO QD seven days): ns | Stereotypy count, WT-Veh vs. KO1-Compound: Significant? ([2]; 0.1 mg/Kg PO QD seven days): No | Stereotypy count, WT-Veh vs. KO1-Compound: Summary ([2]; 0.1 mg/Kg PO QD seven days): ns | Effect on repetitive behaviors (stereotypical movements, FIG. 10) ([2]; 0.05 and 0.1 mg/Kg): decreased | Open field (hyperactivity, total distance traveled), WT-Veh vs. KO1-Compound: Significant? ([3]; 0.01 mg/Kg PO QD seven days): Yes | Open field (hyperactivity, total distance traveled), WT-Veh vs. KO1-Compound: Significant? ([3]; 0.05 mg/Kg PO QD seven days): Yes | Open field (hyperactivity, total distance traveled), WT-Veh vs. KO1-Compound: Significant? ([3]; 0.1 mg/Kg PO QD seven days): No | Open field (hyperactivity, total distance traveled), WT-Veh vs. KO1-Compound: Summary ([3]; 0.1 mg/Kg PO QD seven days): ns | Open field locomotor activity (total distance traveled), WT-Veh vs. KO2-Compound: Significant? ([4]; 0.01 mg/Kg PO QD seven days): Yes | Open field locomotor activity (total distance traveled), WT-Veh vs. KO2-Compound: Significant? ([4]; 0.05 mg/Kg PO QD seven days): Yes | Open field locomotor activity (total distance traveled), WT-Veh vs. KO2-Compound: Significant? ([4]; 0.1 mg/Kg PO QD seven days): No | Open field locomotor activity (total distance traveled), WT-Veh vs. KO2-Compound: Summary ([4]; 0.1 mg/Kg PO QD seven days): ns | Open field counter revolutions (CCW), WT-Veh vs. KO2-Compound: Significant? ([5]; 0.01 mg/Kg PO QD seven days): Yes | Open field counter revolutions (CCW), WT-Veh vs. KO2-Compound: Significant? ([5]; 0.05 mg/Kg PO QD seven days): No | Open field counter revolutions (CCW), WT-Veh vs. KO2-Compound: Summary ([5]; 0.05 mg/Kg PO QD seven days): ns | Open field counter revolutions (CCW), WT-Veh vs. KO2-Compound: Significant? ([5]; 0.1 mg/Kg PO QD seven days): No | Open field counter revolutions (CCW), WT-Veh vs. KO2-Compound: Summary ([5]; 0.1 mg/Kg PO QD seven days): ns | Effect on CCW revolutions phenotype (FIG. 2) ([5]; 0.05 and 0.1 mg/Kg): rescued | Stereotypy count, WT-Veh vs. KO2-Compound: Significant? ([6]; 0.01 mg/Kg PO QD seven days): Yes | Stereotypy count, WT-Veh vs. KO2-Compound: Significant? ([6]; 0.05 mg/Kg PO QD seven days): No | Stereotypy count, WT-Veh vs. KO2-Compound: Summary ([6]; 0.05 mg/Kg PO QD seven days): ns | Stereotypy count, WT-Veh vs. KO2-Compound: Significant? ([6]; 0.1 mg/Kg PO QD seven days): No | Stereotypy count, WT-Veh vs. KO2-Compound: Summary ([6]; 0.1 mg/Kg PO QD seven days): ns | Effect on stereotypy counts phenotype (FIG. 4) ([6]; 0.05 and 0.1 mg/Kg): reversed | Open field counter revolutions (CCW), WT-Veh vs. KO1-Compound: Significant? ([7]; 0.01 mg/Kg PO QD seven days): Yes | Open field counter revolutions (CCW), WT-Veh vs. KO1-Compound: Significant? ([7]; 0.05 mg/Kg PO QD seven days): No | Open field counter revolutions (CCW), WT-Veh vs. KO1-Compound: Summary ([7]; 0.05 mg/Kg PO QD seven days): ns | Open field counter revolutions (CCW), WT-Veh vs. KO1-Compound: Significant? ([7]; 0.1 mg/Kg PO QD seven days): No | Open field counter revolutions (CCW), WT-Veh vs. KO1-Compound: Summary ([7]; 0.1 mg/Kg PO QD seven days): ns | Effect on CCW repetitive behavior (FIG. 8) ([7]; 0.05 and 0.1 mg/Kg): reversed CCW repetitive behavior
